Results taken from the kinase profiling compilation of Christmann-Franck et al. (2016).
Several values for one entry are separate records, joined by “and”; a condition that tells them apart may be missing. Equal values may be shown once.

Tests used:
Experiment in all cases: radiometric filter-binding kinase assay, Kinase HotSpot
Details in all cases: compound 0.5 µM; ATP 10 µM
MINK1 (human) = MINK1 (human) (UniProt Q8N4C8)
MAP3K2 (human) = MAP3K2 (human) (UniProt Q9Y2U5)
MAPKAPK3 (human) = MAPKAPK3 (human) (UniProt Q16644)
Chain of MAPKAPK3 (human) (Q16644 whole entry, looked up): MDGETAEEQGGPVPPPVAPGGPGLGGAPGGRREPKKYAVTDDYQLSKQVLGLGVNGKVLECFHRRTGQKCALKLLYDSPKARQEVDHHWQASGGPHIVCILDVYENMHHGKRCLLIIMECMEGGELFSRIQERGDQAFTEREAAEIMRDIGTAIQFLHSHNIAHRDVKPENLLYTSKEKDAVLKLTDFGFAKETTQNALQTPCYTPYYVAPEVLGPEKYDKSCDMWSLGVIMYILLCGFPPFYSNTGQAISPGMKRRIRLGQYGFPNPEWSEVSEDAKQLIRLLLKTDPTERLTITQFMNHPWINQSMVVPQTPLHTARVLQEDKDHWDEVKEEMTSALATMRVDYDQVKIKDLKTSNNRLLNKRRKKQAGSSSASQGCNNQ

EPHA7 (human) = EPHA7 (human) (UniProt Q15375)
CLK3 (human) = CLK3 (human) (UniProt P49761)
IGF1R (human) = IGF1R (human) (UniProt P08069)
ERBB2 (human) = ERBB2 (human) (UniProt P04626)
CSNK1E (human) = CSNK1E (human) (UniProt P49674)
DYRK1B (human) = DYRK1B (human) (UniProt Q9Y463)
ABL1 (human) = ABL1 (human) (UniProt P00519)
CDK9 CCNK (human) = CDK9 CCNK (human) (UniProt O75909+P50750)
NLK (human) = NLK (human) (UniProt Q9UBE8)
CSK (human) = CSK (human) (UniProt P41240)
Chain of CSK (human) (P41240 whole entry, looked up): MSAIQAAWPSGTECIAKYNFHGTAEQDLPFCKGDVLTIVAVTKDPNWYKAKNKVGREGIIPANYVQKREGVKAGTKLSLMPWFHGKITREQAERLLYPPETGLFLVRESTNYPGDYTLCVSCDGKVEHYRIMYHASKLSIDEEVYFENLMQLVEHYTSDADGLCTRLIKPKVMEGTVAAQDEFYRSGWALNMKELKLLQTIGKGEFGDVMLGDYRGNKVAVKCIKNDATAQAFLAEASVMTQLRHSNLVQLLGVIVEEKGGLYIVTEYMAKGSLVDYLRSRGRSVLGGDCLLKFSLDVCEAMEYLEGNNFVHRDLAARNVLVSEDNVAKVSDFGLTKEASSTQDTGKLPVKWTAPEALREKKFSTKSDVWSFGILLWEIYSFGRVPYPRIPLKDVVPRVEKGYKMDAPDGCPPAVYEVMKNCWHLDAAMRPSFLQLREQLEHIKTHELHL

HIPK3 (human) = HIPK3 (human) (UniProt Q9H422)
Chain of HIPK3 (human) (Q9H422 whole entry, looked up): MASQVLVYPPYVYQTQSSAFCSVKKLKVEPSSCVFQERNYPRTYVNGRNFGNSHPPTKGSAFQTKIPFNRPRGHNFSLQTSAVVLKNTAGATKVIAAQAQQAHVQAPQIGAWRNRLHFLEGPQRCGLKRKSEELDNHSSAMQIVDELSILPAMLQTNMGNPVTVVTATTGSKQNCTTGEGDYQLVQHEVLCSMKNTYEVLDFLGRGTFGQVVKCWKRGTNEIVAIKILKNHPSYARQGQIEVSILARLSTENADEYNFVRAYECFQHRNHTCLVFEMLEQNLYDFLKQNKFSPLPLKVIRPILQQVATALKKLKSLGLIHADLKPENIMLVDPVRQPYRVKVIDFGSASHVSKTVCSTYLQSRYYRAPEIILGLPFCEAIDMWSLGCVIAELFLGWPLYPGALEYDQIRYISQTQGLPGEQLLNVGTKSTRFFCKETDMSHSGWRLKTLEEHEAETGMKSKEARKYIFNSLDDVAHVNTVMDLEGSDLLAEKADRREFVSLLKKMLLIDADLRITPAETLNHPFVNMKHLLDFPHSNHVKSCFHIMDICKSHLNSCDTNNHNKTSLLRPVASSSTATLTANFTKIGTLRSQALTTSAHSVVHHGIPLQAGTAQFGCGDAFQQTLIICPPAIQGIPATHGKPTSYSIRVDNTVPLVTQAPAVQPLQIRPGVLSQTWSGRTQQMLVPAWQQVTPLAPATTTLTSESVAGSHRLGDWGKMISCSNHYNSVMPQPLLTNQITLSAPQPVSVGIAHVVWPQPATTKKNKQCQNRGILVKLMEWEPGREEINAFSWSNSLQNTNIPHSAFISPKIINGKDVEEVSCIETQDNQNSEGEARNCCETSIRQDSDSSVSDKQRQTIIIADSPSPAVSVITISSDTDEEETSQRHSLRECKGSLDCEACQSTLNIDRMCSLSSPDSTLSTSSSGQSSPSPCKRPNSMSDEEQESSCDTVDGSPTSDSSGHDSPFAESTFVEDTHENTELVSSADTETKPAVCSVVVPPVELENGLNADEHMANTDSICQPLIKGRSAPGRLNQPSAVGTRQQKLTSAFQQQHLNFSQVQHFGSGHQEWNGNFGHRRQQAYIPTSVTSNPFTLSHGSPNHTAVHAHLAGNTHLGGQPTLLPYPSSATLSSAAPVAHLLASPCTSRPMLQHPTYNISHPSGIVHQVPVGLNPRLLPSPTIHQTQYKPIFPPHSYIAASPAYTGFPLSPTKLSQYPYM

CDK5 CDK5R1 p25 (human) = CDK5 CDK5R1 p25 (human) (UniProt Q00535+Q15078)
BRSK1 (human) = BRSK1 (human) (UniProt Q8TDC3)
FES (human) = FES (human) (UniProt P07332)
MAP3K14 (human) = MAP3K14 (human) (UniProt Q99558)
PRKCA (human) = PRKCA (human) (UniProt P17252)
IRAK4 (human) = IRAK4 (human) (UniProt Q9NWZ3)
PRKX (human) = PRKX (human) (UniProt P51817)
MKNK2 (human) = MKNK2 (human) (UniProt Q9HBH9)
MST4 (human) = MST4 (human) (UniProt Q9P289)
PKN1 (human) = PKN1 (human) (UniProt Q16512)
MLTK (human) = MLTK (human) (UniProt Q9NYL2)
Chain of MLTK (human) (Q9NYL2 whole entry, looked up): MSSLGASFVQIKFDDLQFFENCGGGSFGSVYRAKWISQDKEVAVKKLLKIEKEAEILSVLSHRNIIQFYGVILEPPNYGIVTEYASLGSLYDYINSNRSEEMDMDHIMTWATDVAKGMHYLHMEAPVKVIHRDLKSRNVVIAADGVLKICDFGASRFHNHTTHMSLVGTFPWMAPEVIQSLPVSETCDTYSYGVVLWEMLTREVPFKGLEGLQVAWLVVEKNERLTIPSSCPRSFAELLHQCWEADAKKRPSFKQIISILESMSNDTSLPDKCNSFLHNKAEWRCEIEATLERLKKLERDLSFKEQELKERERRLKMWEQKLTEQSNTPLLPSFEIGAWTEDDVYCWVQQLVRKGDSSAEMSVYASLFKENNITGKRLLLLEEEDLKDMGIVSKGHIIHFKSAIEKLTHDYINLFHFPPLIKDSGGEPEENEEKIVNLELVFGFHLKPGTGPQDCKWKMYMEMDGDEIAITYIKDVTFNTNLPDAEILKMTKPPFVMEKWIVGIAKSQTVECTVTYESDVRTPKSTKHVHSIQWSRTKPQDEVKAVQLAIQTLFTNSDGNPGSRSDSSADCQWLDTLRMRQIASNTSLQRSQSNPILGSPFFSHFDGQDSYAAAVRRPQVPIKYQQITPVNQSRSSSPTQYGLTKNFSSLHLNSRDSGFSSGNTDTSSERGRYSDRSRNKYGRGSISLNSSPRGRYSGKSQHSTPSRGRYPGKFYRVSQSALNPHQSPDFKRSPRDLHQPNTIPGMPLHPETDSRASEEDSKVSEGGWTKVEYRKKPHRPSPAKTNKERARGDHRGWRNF

DSTYK (human) = DSTYK (human) (UniProt Q6XUX3)
SRPK3 (human) = SRPK3 (human) (UniProt Q9UPE1)
SYK (human) = SYK (human) (UniProt P43405)
PRKG1 (human) = PRKG1 (human) (UniProt Q13976)
JAK2 JH1 JH2 (human) = JAK2 JH1 JH2 (human) (UniProt O60674)
NEK6 (human) = NEK6 (human) (UniProt Q9HC98)
FLT1 (human) = FLT1 (human) (UniProt P17948)
EPHB2 (human) = EPHB2 (human) (UniProt P29323)
Chain of EPHB2 (human) (P29323 whole entry, looked up): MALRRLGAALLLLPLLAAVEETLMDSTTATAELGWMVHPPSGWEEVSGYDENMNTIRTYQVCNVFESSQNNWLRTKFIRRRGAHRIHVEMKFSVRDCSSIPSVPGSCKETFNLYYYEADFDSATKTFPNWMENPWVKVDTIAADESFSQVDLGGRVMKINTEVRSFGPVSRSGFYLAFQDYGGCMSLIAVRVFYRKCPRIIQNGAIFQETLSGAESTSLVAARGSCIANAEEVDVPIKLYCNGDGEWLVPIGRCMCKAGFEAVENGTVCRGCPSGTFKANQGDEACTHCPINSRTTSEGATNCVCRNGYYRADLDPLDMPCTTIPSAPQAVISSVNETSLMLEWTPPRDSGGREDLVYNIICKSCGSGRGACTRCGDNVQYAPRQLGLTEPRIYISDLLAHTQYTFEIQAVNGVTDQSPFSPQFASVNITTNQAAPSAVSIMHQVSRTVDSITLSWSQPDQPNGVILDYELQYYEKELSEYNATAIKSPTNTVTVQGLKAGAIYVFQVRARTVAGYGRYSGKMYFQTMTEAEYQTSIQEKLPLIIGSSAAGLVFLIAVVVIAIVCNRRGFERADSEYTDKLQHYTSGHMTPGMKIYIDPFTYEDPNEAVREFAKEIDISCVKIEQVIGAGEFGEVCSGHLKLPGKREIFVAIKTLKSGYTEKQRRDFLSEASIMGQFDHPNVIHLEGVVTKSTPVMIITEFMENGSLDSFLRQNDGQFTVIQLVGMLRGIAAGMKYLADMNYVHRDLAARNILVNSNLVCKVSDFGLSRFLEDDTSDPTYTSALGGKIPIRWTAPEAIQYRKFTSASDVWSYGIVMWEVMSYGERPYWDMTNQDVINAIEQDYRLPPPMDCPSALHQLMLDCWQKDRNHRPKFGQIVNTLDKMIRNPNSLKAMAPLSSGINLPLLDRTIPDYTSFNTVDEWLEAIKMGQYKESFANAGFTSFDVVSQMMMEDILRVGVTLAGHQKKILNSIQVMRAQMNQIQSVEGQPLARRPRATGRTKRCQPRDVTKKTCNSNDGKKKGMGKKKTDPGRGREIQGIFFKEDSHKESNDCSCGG

PHKG2 (human) = PHKG2 (human) (UniProt P15735)
ABL2 (human) = ABL2 (human) (UniProt P42684)
CAMKK2 (human) = CAMKK2 (human) (UniProt Q96RR4)
MAPK9 (human) = MAPK9 (human) (UniProt P45984)
PAK7 (human) = PAK7 (human) (UniProt Q9P286)
CSNK1D (human) = CSNK1D (human) (UniProt P48730)
MARK3 (human) = MARK3 (human) (UniProt P27448)
ULK2 (human) = ULK2 (human) (UniProt Q8IYT8)
Chain of ULK2 (human) (Q8IYT8 whole entry, looked up): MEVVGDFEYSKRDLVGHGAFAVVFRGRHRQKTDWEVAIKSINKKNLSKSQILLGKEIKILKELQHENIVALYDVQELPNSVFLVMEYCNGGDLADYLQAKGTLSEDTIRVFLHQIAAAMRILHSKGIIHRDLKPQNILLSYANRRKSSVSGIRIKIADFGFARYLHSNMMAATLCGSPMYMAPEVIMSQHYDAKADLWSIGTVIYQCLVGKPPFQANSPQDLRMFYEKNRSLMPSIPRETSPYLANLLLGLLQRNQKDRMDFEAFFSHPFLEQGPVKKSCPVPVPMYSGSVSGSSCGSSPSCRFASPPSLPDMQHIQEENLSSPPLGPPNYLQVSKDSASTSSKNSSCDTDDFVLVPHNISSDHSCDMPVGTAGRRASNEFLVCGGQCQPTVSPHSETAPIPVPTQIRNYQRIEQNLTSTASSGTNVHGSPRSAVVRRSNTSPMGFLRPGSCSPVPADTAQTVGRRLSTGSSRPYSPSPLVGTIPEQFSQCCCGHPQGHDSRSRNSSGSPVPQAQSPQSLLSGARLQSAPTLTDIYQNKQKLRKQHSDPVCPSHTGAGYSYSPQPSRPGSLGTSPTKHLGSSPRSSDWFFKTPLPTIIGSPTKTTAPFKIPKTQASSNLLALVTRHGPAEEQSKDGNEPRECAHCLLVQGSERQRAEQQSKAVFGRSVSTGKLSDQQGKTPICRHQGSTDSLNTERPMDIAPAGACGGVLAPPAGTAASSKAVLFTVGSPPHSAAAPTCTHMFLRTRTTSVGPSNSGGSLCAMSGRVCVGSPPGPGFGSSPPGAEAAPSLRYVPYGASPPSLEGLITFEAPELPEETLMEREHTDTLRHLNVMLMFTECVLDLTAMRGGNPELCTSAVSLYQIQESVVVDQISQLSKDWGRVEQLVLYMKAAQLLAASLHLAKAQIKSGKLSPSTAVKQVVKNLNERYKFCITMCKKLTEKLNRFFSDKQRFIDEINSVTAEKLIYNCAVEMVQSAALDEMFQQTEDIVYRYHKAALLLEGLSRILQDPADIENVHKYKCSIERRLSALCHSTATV

INSRR (human) = INSRR (human) (UniProt P14616)

With `Cn1cc(/C=C2\C(=O)Nc3ccc(S(N)(=O)=O)cc32)c2ccccc21` the residual activity (MINK1 (human)) was 53.7%, the residual activity (MAP3K2 (human)) was 92.1% and the residual activity (MAPKAPK3 (human)) was 91.5%. The residual activity (EPHA7 (human)) was 41.3%, the residual activity (CLK3 (human)) was 81.4% and the residual activity (IGF1R (human)) was 87.9%. The residual activity (ERBB2 (human)) was 120%, the residual activity (CSNK1E (human)) was 89% and the residual activity (DYRK1B (human)) was 104%. For the same compound, the residual activity (ABL1 (human)) was 52.5%, the residual activity (CDK9 CCNK (human)) was 86.8% and the residual activity (NLK (human)) was 90.4%. For the same compound, the residual activity (CSK (human)) was 89.3%, the residual activity (HIPK3 (human)) was 105% and the residual activity (CDK5 CDK5R1 p25 (human)) was 58%. For the same compound, the residual activity (BRSK1 (human)) was 47.8%, the residual activity (FES (human)) was 57.4% and the residual activity (MAP3K14 (human)) was 123%. It also gave a residual activity (PRKCA (human)) of 123%, a residual activity (IRAK4 (human)) of 2.98% and a residual activity (PRKX (human)) of 81%. The residual activity (MKNK2 (human)) was 71.1%, the residual activity (MST4 (human)) was 101% and the residual activity (PKN1 (human)) was 68.9%. The residual activity (MLTK (human)) was 95%, the residual activity (DSTYK (human)) was 92.5% and the residual activity (SRPK3 (human)) was 88.5%. For the same compound, the residual activity (SYK (human)) was 16.5%, the residual activity (PRKG1 (human)) was 81.1% and 87.2% and the residual activity (JAK2 JH1 JH2 (human)) was 58.4%. For the same compound, the residual activity (NEK6 (human)) was 98.6%, the residual activity (FLT1 (human)) was 70.1% and the residual activity (EPHB2 (human)) was 84.8%. It also gave a residual activity (PHKG2 (human)) of 52%, a residual activity (ABL2 (human)) of 54.2% and a residual activity (CAMKK2 (human)) of 34.4%. It also gave a residual activity (MAPK9 (human)) of 93.8%, a residual activity (PAK7 (human)) of 75.3% and a residual activity (CSNK1D (human)) of 102%. It also gave a residual activity (MARK3 (human)) of 57.2%, a residual activity (ULK2 (human)) of 72.3% and a residual activity (INSRR (human)) of 86.9%.
`COc1cc2ncnc(Nc3ccc(O)c(Br)c3)c2cc1OC` gave a residual activity (MINK1 (human)) of 64.4%, a residual activity (MAP3K2 (human)) of 92.4% and a residual activity (MAPKAPK3 (human)) of 96.2%. The residual activity (EPHA7 (human)) was 46.1%, the residual activity (CLK3 (human)) was 54.1% and the residual activity (IGF1R (human)) was 104%. The residual activity (ERBB2 (human)) was 33.1%, the residual activity (CSNK1E (human)) was 85.1% and the residual activity (DYRK1B (human)) was 91.3%. The residual activity (ABL1 (human)) was 79.4%, the residual activity (CDK9 CCNK (human)) was 91.1% and the residual activity (NLK (human)) was 76.2%. The residual activity (CSK (human)) was 91.6%, the residual activity (HIPK3 (human)) was 67.7% and the residual activity (CDK5 CDK5R1 p25 (human)) was 98.4%. For the same compound, the residual activity (BRSK1 (human)) was 81.6%, the residual activity (FES (human)) was 94.9% and the residual activity (MAP3K14 (human)) was 82.6%. For the same compound, the residual activity (PRKCA (human)) was 109%, the residual activity (IRAK4 (human)) was 91.1% and the residual activity (PRKX (human)) was 89.2%. It also gave a residual activity (MKNK2 (human)) of 18%, a residual activity (MST4 (human)) of 90.2% and a residual activity (PKN1 (human)) of 95.6%. For the same compound, the residual activity (MLTK (human)) was 89%, the residual activity (DSTYK (human)) was 106% and the residual activity (SRPK3 (human)) was 92.4%. For the same compound, the residual activity (SYK (human)) was 86.7%, the residual activity (PRKG1 (human)) was 87.1% and 88.9% and the residual activity (JAK2 JH1 JH2 (human)) was 95%. It also gave a residual activity (NEK6 (human)) of 100%, a residual activity (FLT1 (human)) of 83.4% and a residual activity (EPHB2 (human)) of 66.1%. The residual activity (PHKG2 (human)) was 98%, the residual activity (ABL2 (human)) was 58.4% and the residual activity (CAMKK2 (human)) was 92.4%. The residual activity (MAPK9 (human)) was 88.4%, the residual activity (PAK7 (human)) was 97.7% and the residual activity (CSNK1D (human)) was 89.7%. For the same compound, the residual activity (MARK3 (human)) was 98.8%, the residual activity (ULK2 (human)) was 104% and the residual activity (INSRR (human)) was 96.8%.
For `Nc1ncnc2c1cnn2-c1ccccc1`, the residual activity (MINK1 (human)) was 88.9%, the residual activity (MAP3K2 (human)) was 89.5% and the residual activity (MAPKAPK3 (human)) was 96.6%. It also gave a residual activity (EPHA7 (human)) of 99.2%, a residual activity (CLK3 (human)) of 96.1% and a residual activity (IGF1R (human)) of 96.4%. It also gave a residual activity (ERBB2 (human)) of 107%, a residual activity (CSNK1E (human)) of 81.5% and a residual activity (DYRK1B (human)) of 93%. It also gave a residual activity (ABL1 (human)) of 99.4%, a residual activity (CDK9 CCNK (human)) of 92.9% and a residual activity (NLK (human)) of 92.5%. The residual activity (CSK (human)) was 86.8%, the residual activity (HIPK3 (human)) was 97.6% and the residual activity (CDK5 CDK5R1 p25 (human)) was 102%. For the same compound, the residual activity (BRSK1 (human)) was 90.2%, the residual activity (FES (human)) was 99.7% and the residual activity (MAP3K14 (human)) was 120%. The residual activity (PRKCA (human)) was 103%, the residual activity (IRAK4 (human)) was 89.4% and the residual activity (PRKX (human)) was 95.3%. The residual activity (MKNK2 (human)) was 72.7%, the residual activity (MST4 (human)) was 82.2% and the residual activity (PKN1 (human)) was 98.6%. For the same compound, the residual activity (MLTK (human)) was 92.5%, the residual activity (DSTYK (human)) was 94.5% and the residual activity (SRPK3 (human)) was 96.4%. The residual activity (SYK (human)) was 96%, the residual activity (PRKG1 (human)) was 107% and 91.3% and the residual activity (JAK2 JH1 JH2 (human)) was 91.6%. It also gave a residual activity (NEK6 (human)) of 114%, a residual activity (FLT1 (human)) of 88.5% and a residual activity (EPHB2 (human)) of 96.2%. It also gave a residual activity (PHKG2 (human)) of 94.1%, a residual activity (ABL2 (human)) of 93% and a residual activity (CAMKK2 (human)) of 86.8%. The residual activity (MAPK9 (human)) was 88.2%, the residual activity (PAK7 (human)) was 97% and the residual activity (CSNK1D (human)) was 79.5%. The residual activity (MARK3 (human)) was 86.1%, the residual activity (ULK2 (human)) was 95.1% and the residual activity (INSRR (human)) was 106%.
